Test results reported in patent publication US20100120810A1, “COMPOUNDS AND METHODS FOR MODULATING RHO GTPASES” (priority 2007, published 2010).
Counter-ions that a name gives are not always drawn. Like-named read-outs stand apart in the source and are kept apart here.

Assays:
[1] = test system: HCT116 cell line; test: Soft agar assay (anchorage-independent colony formation); type: cell-based; conditions: HCT116, 7 days
Excerpt: Colony formation in soft agar is the most widely used assay to evaluate anchorage-independent growth potential and represents one of the best in vitro assays that correlates strongly with in vivo tumorigenic cell growth potential. Normal cells require adherence and spreading onto a solid substratum in order to remain viable and proliferate. In contrast, cancer cell line HCT116 (ATCC clone number CCL-247) lost this requirement and therefore can form proliferating colonies of cells when suspended in a semisolid agar medium. The assay was performed in 24-well plates, using duplicates wells for each compound concentration. Briefly, a 0.5% Bacto™ Agar (BD Biosciences) bottom layer (prepared in HCT116 complete growth medium supplemented or not with the tested compound) was poured first and allowed to harden (0.3 ml per well). HCT116 were trypsinized to generate a uniform single cell suspension. Five×10^3 cells per well were resuspended in 0.3% agar supplemented with complete growth medium, with or without several compound concentrations to form the top layer (0.3 ml per well). HCT116 were allowed to grow for 7 days in these conditions and then analysed for colonies formation. Analysis was performed from pictures taken under a microscope that are representative from 2 different fields of the well. For each field, 2 different focal plans were taken and were merged using ImageJ software. The number of colonies were scored and colonies' size were measured. IC50 were determined for the number and size of colonies using GraphPad Prism (GraphPad) software. Data are mean values of 2 to 3 independent experiments.

[2] = target: T1, Cdc42 (Homo sapiens, UniProt P60953); test: Nucleotide binding assay: BODIPY-GTP binding to Cdc42; type: biochemical; conditions: for inhibition at 50 µM: read-out: Cdc42 % inhibition of BODIPY-GTP binding; for IC50: dose-response study
T1 construct: GST (N); made in house; host or cells: E. coli BL21 Codon+RIL
T1 sequence (P60953 whole entry, species assumed): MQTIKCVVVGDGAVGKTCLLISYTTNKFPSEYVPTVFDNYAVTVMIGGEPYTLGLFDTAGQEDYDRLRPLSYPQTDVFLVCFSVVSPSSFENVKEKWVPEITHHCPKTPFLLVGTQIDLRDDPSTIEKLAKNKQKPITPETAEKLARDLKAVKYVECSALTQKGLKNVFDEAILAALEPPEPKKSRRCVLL
Procedure: (§1) Fluorescence of GTP analog BODIPY-GTP increases when it binds to small G proteins. This property was used to assess ability of compounds to inhibit nucleotide binding to Rac1, Rac1b and Cdc42. 2 μM GST-Rac1 and 6 μg His6-Tiam1-DH/PH were diluted in a buffer containing 20 mM Tris, 50 mM NaCl, and 1 mM MgCl2. This mixture was loaded in a 96-well plate. Fluorescence recording were started (λEx: 485 nm; λEm: 538 nm) using a spectrofluorimeter (Fluoroskan; Thermolab Systems). Assay was initiated by the addition of 2 μM BODIPY-GTP with or without various doses of test compound. Fluorescence values were recorded, and data were processed as follows: background fluorescence (unbound BODIPY-GTP) was retrieved from fluorescence values.
(§2) This assay allows determining whether compounds can inhibit the binding of a fluorescent nucleotide to recombinant small G proteins of interest. The effect of various alkaloid compounds on binding of BODIPY-GTP to Rac1 activated by DH/PH domain of Guanine nucleotide Exchange Factor Tiam1 (Rac1/Tiam1), Rac1b and Cdc42 is described below.

[3] = target: T2, Rac1b (Homo sapiens, UniProt P63000); test: Nucleotide binding assay: BODIPY-GTP binding to Rac1b; type: biochemical; conditions: for inhibition at 50 µM: read-out: Rac1b % inhibition of BODIPY-GTP binding
T2 construct: GST (N); made in house; host or cells: E. coli BL21 Codon+RIL
Procedure: as §1, §2

[4] = target: T3, Rac1 activated by DH/PH domain of Guanine nucleotide Exchange Factor Tiam1 (Rac1/Tiam1) (Homo sapiens, UniProt P63000); test: Nucleotide binding assay: BODIPY-GTP binding to Rac1 activated by Tiam1 DH/PH; type: biochemical; conditions: for inhibition at 50 µM: read-out: Rac1 % inhibition of BODIPY-GTP binding
T3 construct: made in house; host or cells: E. coli BL21 Codon+RIL
Procedure: as §1, §2

[5] = target: T4, HEK293 cells overexpressing human Rac1b (Homo sapiens, UniProt P63000); test: Rac1b activation assay (G-LISA); type: cell-based
T4 construct: expressed in transfected cells; host or cells: HEK293
Procedure: Rac1b activation assay: HEK293 cells overexpressing human Rac1b were plated in 100 mm diameter dishes and grown for 5 days in MEM medium supplemented with 10% FBS, L-Glutamine and antibiotics. Cells were then treated with 50 μM of compounds or the solvent for 5 minutes, and the GTP loading of Rac1b was measured using a Rac Activation Assay Kit (Cytoskeleton) according to manufacturer's recommendations. Briefly, this assay uses a 96-well plate coated with RBD domain of Rho-family effector proteins. […] The signal is then developed with OPD reagent.

[6] = Homo sapiens, HCT-116, 168 h, read-out: Soft agar assay IC50, Clone Number
[7] = Homo sapiens, HCT-116, 168 h, read-out: Soft agar assay IC50, Clone Size
[8] = final concentration of 50 μM, Rac1/Tiam1
[9] = HEK293, 50 μM, 5 minutes, GTP loading of Rac1b, read-out: G-LISA % inhibition @ 50 μM

Row | SMILES | inhibition at 50 µM ([2]; final concentration of 50 μM) [%] | inhibition at 50 µM ([3]; final concentration of 50 μM) [%] | inhibition at 50 µM [4, 8] [%] | further results
1 | Oc1cc2c(cc1O)C1Cc3ccc(O)c(O)c3CN1CC2 (racemic) [Compound 16, (±)-5,8,13,13a-Tetrahydro-6H-isoquino[3,2-a]isoquinolinylium-2,3,9,10-tetraol hydrochloride] | – | – | – | IC50 [1, 6]: 6.4 ± 1.3 µM; IC50 [1, 7]: 6.2 ± 0.4 µM; inhibition at 50 µM [2]: 4 ± 6%
2 | COc1ccc2cc3[n+](cc2c1OC)CCc1cc(O)c(O)cc1-3 [Compound 4, 9,10-dimethoxy-5,6-dihydro-isoquino[3,2-a]isoquinolinylium-2,3-diol chloride] | 31 ± 9 | – | – | IC50 ([3]; dose-response study): 23.8 ± 2.9 µM; inhibition at 50 µM [3]: 54 ± 2%; IC50 ([4]; dose-response study): 58.6 ± 16.9 µM; inhibition at 50 µM [4]: 39 ± 2%; inhibition at 50 µM ([5]; HEK293, read-out: G-LISA % inhibition @ 50 μM): 30 ± 5%
3 | COc1cc2cc(-c3cccc(C(C)=O)c3)nc(C)c2cc1OC [Compound 24, 1-(3-(6,7-Dimethoxy-1-methylisoquinolin-3-yl)phenyl)ethanone hydrochloride] | 7 ± 2 | 27 ± 2 | 18 ± 3 | inhibition at 50 µM [5, 9]: 19 ± 5%
4 | COc1cc2cc(-c3ccc(O)c(O)c3)nc(C)c2cc1OC [Compound 26, 4-(6,7-Dimethoxy-1-methylisoquinolin-3-yl)benzene-1,2-diol hydrochloride] | 15 ± 1 | – | – | IC50 [1, 6]: 14.8 ± 3.3 µM; IC50 [1, 7]: 8.5 ± 0.9 µM
5 | COc1cc2cc(-c3cccc(N)c3)nc(C)c2cc1OC [Compound 28, 3-(6,7-Dimethoxy-1-methylisoquinolin-3-yl)aniline dihydrochloride] | 3 ± 5 | 20 ± 2 | 13 ± 2 | inhibition at 50 µM [5, 9]: 27 ± 4%
6 | COc1cc2cc(-c3cccc(NS(C)(=O)=O)c3)nc(C)c2cc1OC [Compound 30, N-(3-(6,7-Dimethoxy-1-methylisoquinolin-3-yl)phenyl)methanesulfonamide hydrochloride] | 4 ± 4 | 16 ± 2 | 9 ± 3 | inhibition at 50 µM [5, 9]: 12 ± 2%
7 | COc1ccc(-c2cc3cc(OC)c(OC)cc3c(C)n2)cn1 [Compound 35, 6,7-Dimethoxy-3-(6-methoxypyridin-3-yl)-1-methylisoquinoline dimethanesulfonate] | 11 ± 2 | 6 ± 2 | 6 ± 4 | –
8 | COc1cc2cc(-c3cccnc3)nc(C)c2cc1OC [Compound 36, 6,7-Dimethoxy-1-methyl-3-(pyridin-3-yl)isoquinoline dihydrochloride] | -4 ± 13 | 12 ± 3 | 10 ± 3 | –
9 | COc1cc2cc(-c3ccccc3N)nc(C)c2cc1OC [Compound 37, 2-(6,7-Dimethoxy-1-methylisoquinolin-3-yl)aniline dihydrochloride] | 1 ± 13 | 14 ± 2 | 10 ± 1 | –
10 | COc1cc2cc(-c3ccccc3NC(C)=O)nc(C)c2cc1OC [Compound 38, N-(2-(6,7-Dimethoxy-1-methylisoquinolin-3-yl)phenyl)acetamide] | 3 ± 7 | 0 | 1 ± 3 | –
11 | COc1cc2cc(-c3ccc(Cl)c(Cl)c3)nc(C)c2cc1OC [Compound 39, 3-(3,4-Dichlorophenyl)-6,7-dimethoxy-1-methylisoquinolinylium chloride] | 5 ± 1 | 42 ± 7 | 17 ± 7 | –
12 | COc1ccc(-c2cc3cc(OC)c(OC)cc3c(C)n2)cc1 [Compound 40, 6,7-Dimethoxy-3-(4-methoxyphenyl)-1-methylisoquinolinylium chloride] | 14 ± 1 | 17 ± 3 | 15 ± 3 | –
13 | COc1cc2cc(-c3ccc4ccccc4c3)nc(C)c2cc1OC.Cl [Compound 41, 6,7-Dimethoxy-1-methyl-3-(naphthalen-2-yl)isoquinolinylium chloride] | – | – | – | IC50 [1, 6]: 70.7 ± 5.9 µM; IC50 [1, 7]: 44.4 ± 4.5 µM; Cdc42 % inhibition of BODIPY-GTP binding ([2]; final concentration of 50 μM, 50 µM): 52 ± 4%
14 | COc1cc2cc(-c3ccc(Cl)cc3)nc(C)c2cc1OC [Compound 42, 3-(4-Chlorophenyl)-6,7-dimethoxy-1-methylisoquinolinylium chloride] | 11 ± 2 | 17 ± 3 | 18 ± 3 | –
15 | COc1cc2cc(-c3ccc(C)cc3)nc(C)c2cc1OC [Compound 43, 6,7-Dimethoxy-1-methyl-3-p-tolylisoquinolinylium chloride] | 15 ± 2 | 17 ± 2 | 19 ± 1 | –
16 | COc1cc2cc(-c3ccccc3)nc(C)c2cc1OC [Compound 44, 6,7-Dimethoxy-1-methyl-3-phenylisoquinolinylium chloride] | 10 ± 1 | 8 ± 3 | 10 ± 3 | –
17 | Cc1c2cc(O)c(O)cc2cc(-c2ccc(O)c(O)c2)[n+]1C [Compound 45, 3-(3,4-Dihydroxyphenyl)-6,7-dihydroxy-1,2-dimethylisoquinolinium chloride] | 12 ± 1 | 36 ± 4 | 22 ± 1 | –
18 | COc1cc2cc(-c3ccccc3NC(=O)N(C)C)nc(C)c2cc1OC [Compound 46, 3-(2-(6,7-Dimethoxy-1-methylisoquinolin-3-yl)phenyl)-1,1-dimethylurea hydrochloride] | 2 | 9 ± 3 | 8 ± 3 | –
19 | COc1cc(-c2cc3cc(OC)c(OC)cc3c(C)n2)ccc1O [Compound 47, 4-(6,7-Dimethoxy-1-methylisoquinolin-3-yl)-2-methoxyphenol hydrochloride] | 17 ± 1 | 18 ± 1 | 15 ± 3 | inhibition at 50 µM [5, 9]: 13 ± 8%
20 | COc1cc2cnc(-c3ccccc3)cc2cc1OC [Compound 49, 6,7-Dimethoxy-3-phenylisoquinolinium chloride] | 2 ± 6 | 2 ± 4 | 1 ± 5 | –
21 | COc1cc2cc(-c3ccccc3)[n+](C)cc2cc1OC [Compound 50, 6,7-Dimethoxy-2-methyl-3-phenylisoquinolinium chloride] | 10 ± 6 | 10 ± 5 | 3 ± 5 | –
22 | COc1ccc2c(c[n+](C)c3c4cc(O)c(O)cc4ccc23)c1OC [Compound 51, 2,3-Dihydroxy-7,8-dimethoxy-5-methylbenzo[c]phenanthridinium chloride] | 38 ± 2 | – | – | IC50 [1, 6]: > 50 µM; IC50 [1, 7]: 11.4 ± 1.9 µM; IC50 [2]: 78 ± 3 µM
23 | C[n+]1cc2c(O)c(O)ccc2c2ccc3cc(O)c(O)cc3c21 [Compound 52, 2,3,7,8-Tetrahydroxy-5-methylbenzo[c]phenanthridinium chloride] | – | – | – | IC50 [1, 6]: 9.8 ± 1.3 µM; IC50 [1, 7]: 9.5 ± 0.4 µM; IC50 [2]: 22 ± 2 µM; inhibition at 50 µM [2]: 73 ± 4%
24 | O=c1cc(CN2CCOCC2)occ1OCCCCCSc1ccnc2cc(C(F)(F)F)ccc12 [EHT 1864, reference compound] | – | – | – | IC50 ([1]; read-out: Soft agar assay IC50, Clone Number): 57.5 ± 4.5 µM; IC50 ([1]; read-out: Soft agar assay IC50, Clone Size): 19.5 ± 2.5 µM
